The values below come from patent publication EP2575807B1, “FORMULATION BASED ON SULPIRIDE AND A SYNERGISTIC HOMEOPATHIC COMPOSITION FOR TREATMENT OF DEPRESSIVE SYNDROME” (Novak, Maja, priority 2010, dated 2011).

Data set [1] concerns women suffering of depressive syndrome. Kind of data set: Controlled study of antidepressant activity, Hamilton rating scale for depression (HAMD test). It is filed as in vivo. The method, then:
They are divided onto two groups by randomization: • (i) A control group (N = 32) received once-a-day combined (in the same syringe) dose of 20 mg of sulpiride (1; 0.4 mL) diluted with physiological solution (2.0 mL) by subcutaneous injection during three months (90 days).
The duration of administering was three months (90 days; also subcutaneously).
Neurosurg. Psychiatr. […] Psychiatr.
For the 17-item version of HAMD test, scores can range from 0 to 54. […]
The above results were subjected to paired T-test. […] Paired T-test is usually chosen to establish the difference between groups, i.e. their mean values during the Study.
The study was followed by the use of Hamilton rating scale for depression (HAMD test).

The conditions of data set [2]: cited from earlier work.

`CCN1CCCC1CNC(=O)c1cc(S(N)(=O)=O)ccc1OC` (racemic) [sulpiride, (R,S)-(±)-5-(aminosulfonyl)-N-[(1-ethylpyrrolidin-2-yl)methyl]-2-methoxybenzamide]: the HAMD in data set [1] (After the Study, once-a-day subcutaneous injection, 20 mg of sulpiride, three months (90 days)) stood at 17.34 ± 8.77; in data set [1] (Before the Study (baseline), 17-item HAMD score, range 0 to 54), 18.91 ± 9.19. For the same compound, the “Mean difference (paired T-test, HAMD before vs after the Study)” value in data set [1] (once-a-day subcutaneous injection, 20 mg of sulpiride, 90 days) came out at 1.60. For the same compound, the oral bioavailability in data set [2] is 25-35%.
